# Measured values: patent US20060154984A1, “Therapeutic use of acyl glycerols and the nitrogen- and sulphur- containing analogues thereof” (priority 2003, published 2006)
# Molecular target: T1, PPARα (Homo sapiens, UniProt Q07869)
# T1 construct: expressed in transfected cells; host or cells: HepG2
# T1 sequence (Q07869 239-466 limits assumed): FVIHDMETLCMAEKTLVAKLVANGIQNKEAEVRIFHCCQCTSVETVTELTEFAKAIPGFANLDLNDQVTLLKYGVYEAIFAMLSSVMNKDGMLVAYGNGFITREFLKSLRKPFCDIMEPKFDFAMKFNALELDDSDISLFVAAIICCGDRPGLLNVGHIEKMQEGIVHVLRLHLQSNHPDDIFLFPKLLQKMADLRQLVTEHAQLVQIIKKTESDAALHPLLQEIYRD
# Experiment: Gal4/PPARα transactivation system in HepG2 cells (luciferase reporter)
# Assay type: cell-based
# Conditions: HepG2 cells transfected with Gal4/PPARα plasmids, 24 h
# Protocol: PPAR activation was tested in vitro in RK13 fibroblast cell lines or in a hepatocyte line HepG2 by measuring the transcriptional activity of chimeras composed of the DNA binding domain of the yeast gal4 transcription factor and the ligand binding domain of the different PPARs. The example below is given for HepG2 cells.
# HepG2 cells were from ECACC (Porton Down, UK) and were grown in DMEM medium supplemented with 10% (VN) fetal calf serum, 100 U/ml penicillin (Gibco, Paisley, UK) and 2 mM L-glutamine (Gibco, Paisley, UK). The culture medium was changed every two days. Cells were kept at 37° C. in a humidified 95% air/5% CO2 atmosphere.
# The plasmids pG5TkpGL3, PRL-CMV, pGal4-hPPARα, pGal4-hPPARγ and pGal4-f have been described by Raspe et al. (Raspe, Madsen et al. 1999). The pGal4-mPPARα and pGal4-hPPARβ constructs were obtained by cloning PCR-amplified DNA fragments corresponding to the DEF domains of the mouse PPARα and […] nuclear receptors, respectively, into the pGal4-f vector.
# HepG2 cells were seeded in 24-well culture dishes at 5×10^4 cells/well and transfected for 2 hours with the reporter plasmid pG5TkpGL3 (50 ng/well), the expression vectors pGal4-f, pGal4-mPPARα, pGal4-hPPARα, pGal4-hPPARγ, or pGal4-hPPARβ (100 ng/well) and the transfection efficiency control vector pRL-CMV (1 ng/well) according to the previously described protocol (Raspe, Madsen et al. 1999), then incubated for 36 hours with the test compounds. At the end of the experiment, the cells were lysed (Gibco, Paisley, UK) and luciferase activity was determined with a Dual-Luciferase™ Reporter Assay System kit (Promega, Madison, Wis., USA) according to the supplier's instructions. The protein content of the cell extracts was then measured with the Bio-Rad Protein Assay kit (Bio-Rad, Munich, Germany) as directed by the supplier. […] FIG. 3 gives an example of the results obtained with the inventive compounds.
# FIG. 3: HepG2 cells transfected with Gal4/PPARα plasmids were incubated with different concentrations (5, 15, 50 and 100 μM) of the inventive comopunds (Ex 2a, Ex 4a, Ex 4p, Ex 5a, Ex 7 and Ex 11) for 24 h and with different concentrations of the vehicle (PC) noted 1, 2, 3, 4 as controls for the 5, 15, 50 and 100 μM concentrations of the inventive compounds (according to the 4:1 (m/m) ratio described in example 2 (Method of preparation of the inventive compounds for in vitro studies)). The results are expressed as the induction factor (luminescent signal of treated cells divided by luminescent signal of untreated cells) after the different treatments. […] The induction factors for inventive compound Ex 4p were 35 at 100 μM, 44 at 50 μM, 36 at 15 μM and 24 at 5 μM. The induction factors for compound Ex 5a were 32 at 100 μM, 34 at 50 μM, 15 at 15 μM and 4 at 5 μM. Finally, inventive compound Ex 7 induced a 19-fold induction at 100 μM, 19 at 50 μM, 7 at 15 μM and 1.5 at 5 μM. In contrast, when the cells were incubated with the vehicle (PC liposome), no significant induction was observed.
smiles,measurement,setting,value
"CCCCCCCCCCCCCCSCC(=O)OCC(COC(=O)CSCCCCCCCCCCCCCC)OC(=O)CSCCCCCCCCCCCCCC [Ex 4a, 1,2,3-tritetradecylthioacetylglycerol]",induction factor (luminescent signal of treated cells divided by luminescent signal of untreated cells),5 μM,6 fold
same,induction factor (luminescent signal of treated cells divided by luminescent signal of untreated cells),15 μM,15 fold
same,induction factor (luminescent signal of treated cells divided by luminescent signal of untreated cells),50 μM,23 fold
same,induction factor (luminescent signal of treated cells divided by luminescent signal of untreated cells),100 μM,33 fold
